Converted amounts (≈) assume the structure as drawn.
Each molecule was assayed on Staphylococcus aureus (assay: In vitro minimum inhibitory concentration (MIC) vs. Staph. aureus). Conditions: Staphylococcus aureus; Table III; two-fold serial dilution, Brain-Heart Infusion broth, overnight; read-out: MIC vs. Staph. aureus.
Assay type: cell-based
Method: The antibacterial penam compounds of the instant invention show activity against a wide variety of gram-positive and gram-negative bacteria. […] The broth is inoculated with the bacterial culture, and with the test antibiotic, and then it is incubated overnight. On the next day, the test is read visually. The minimum inhibitory concentration (MIC) is the lowest concentration of antibiotic which prevents turbidity, i.e., which prevents growth of the microorganism. In vitro activities of several of the penam compounds of the invention are presented later in this specification.
In Table II, the minimum inhibitory concentrations (MIC's) of compounds of formula I, wherein R^2 is hydrogen, against a strain of Streptococcus pyogenes, are reported; and in Table III, minimum inhibitory concentrations of compounds of formula I, wherein R^2 is hydrogen, against a strain of Staphylococcus aureus, are presented. Because of the tautomeric nature of such tetrazole derivatives, referred to hereinbefore,each of the preparations tested also contains some of the corresponding compound of formula II, wherein R^3 is hydrogen.

SMILES | MIC [µg/mL]
CC1(C)S[C@@H]2[C@H](NC(=O)[C@H](NC(=O)CC(=N)N)c3ccccc3)C(=O)N2[C@H]1c1nn[nH]n1 [D-2-(2-[guanyl]acetamido)-2-phenylacetyl, 6-(D-2-[2-Guanylacetamido]-2-phenylacetamido)-2,2-dimethyl-3-(5-tetrazolyl)penam] | 12.5 (≈ 27.3 µM)
CC1(C)S[C@@H]2[C@H](NC(=O)[C@H](NS(=O)(=O)c3ccc([N+](=O)[O-])cc3)c3ccccc3)C(=O)N2[C@H]1c1nn[nH]n1 | 1.56 (≈ 2.79 µM)
CC(C)C(NC(=N)c1ccncc1)C(=O)N[C@@H]1C(=O)N2[C@@H]1SC(C)(C)[C@@H]2c1nnn[nH]1 (some centres unmarked) | 50 (≈ 113 µM)
CCCS(=O)(=O)N[C@@H](C(=O)N[C@@H]1C(=O)N2[C@@H]1SC(C)(C)[C@@H]2c1nn[nH]n1)c1ccccc1 [D-2-(propanesulfonamido)-2-phenylacetyl] | 0.78 (≈ 1.63 µM)
CC(=N)NCC(=O)N[C@@H](C(=O)N[C@@H]1C(=O)N2[C@@H]1SC(C)(C)[C@@H]2c1nnn[nH]1)c1ccccc1 | 1.56 (≈ 3.31 µM)
CC1(C)S[C@@H]2[C@H](NC(=O)[C@H](N)Cc3c[nH]c4ccccc34)C(=O)N2[C@H]1c1nnn[nH]1 [D-2-amino-3-(3-indolyl)propionyl] | 6.25 (≈ 14.7 µM)
CC1(C)S[C@@H]2[C@H](NC(=O)[C@H](NS(=O)(=O)Cc3ccccc3)c3ccccc3)C(=O)N2[C@H]1c1nn[nH]n1 | 0.39 (≈ 0.739 µM)
CC1(C)S[C@@H]2[C@H](NC(=O)[C@@H](O)c3ccccc3)C(=O)N2[C@H]1c1nnn[nH]1 [L-2-hydroxy-2-phenylacetyl, 6-(L-2-Hydroxy-2-phenylacetamido)-2,2-dimethyl-3-(5-tetrazolyl)penam] | < 0.1
CC1(C)S[C@@H]2[C@H](NC(=O)[C@H](NS(C)(=O)=O)c3ccccc3)C(=O)N2[C@H]1c1nn[nH]n1 [D-2-(methanesulfonamido)-2-phenylacetyl, 6-(D-2-Methanesulfonamido-2-phenylacetamido)-2,2-dimethyl-3-(5-tetrazolyl)penam] | 1.56 (≈ 3.45 µM)
CC1(C)S[C@@H]2[C@H](NC(=O)C(NC(=O)CSc3ccncc3)c3ccccc3)C(=O)N2[C@H]1c1nn[nH]n1 (some centres unmarked) [6-(2-[2-(4-Pyridylthio)acetamido]-2-phenylacetamido)-2,2-dimethyl-3-(5-tetrazolyl)penam] | 100 (≈ 191 µM)
CC1(C)S[C@@H]2[C@H](NC(=O)[C@H](NC(=S)NC(=O)c3ccco3)c3ccccc3)C(=O)N2[C@H]1c1nn[nH]n1 | 0.78 (≈ 1.48 µM)
CC1(C)S[C@@H]2[C@H](NC(=O)[C@H](NC(=O)CNC(=O)c3cc(Br)cc(Br)c3)c3ccccc3)C(=O)N2[C@H]1c1nnn[nH]1 | 1.56 (≈ 2.25 µM)
COc1ccc([C@@H](N)C(=O)N[C@@H]2C(=O)N3[C@@H]2SC(C)(C)[C@@H]3c2nnn[nH]2)cc1 [D-2-amino-2-(p-methoxyphenyl)acetyl] | < 0.1
CC1(C)S[C@@H]2[C@H](NC(=O)[C@H](NS(=O)(=O)c3ccc(Cl)cc3)c3ccccc3)C(=O)N2[C@H]1c1nn[nH]n1 | 1.56 (≈ 2.85 µM)
CC(=O)N[C@@H](C(=O)N[C@@H]1C(=O)N2[C@@H]1SC(C)(C)[C@@H]2c1nnn[nH]1)c1ccccc1 [D-2-(acetamido)-2-phenylacetyl] | 0.78 (≈ 1.88 µM)
CC1(C)S[C@@H]2[C@H](NC(=O)CN)C(=O)N2[C@H]1c1nnn[nH]1 [2-aminoacetyl] | 200 (≈ 673 µM)
CC1(C)S[C@@H]2[C@H](NC(=O)[C@H](NC(=O)CC3=NCCN3)c3ccccc3)C(=O)N2[C@H]1c1nnn[nH]1 | 3.12 (≈ 6.45 µM)
Cc1ccc(S(=O)(=O)NC(=O)N[C@@H](C(=O)N[C@@H]2C(=O)N3[C@@H]2SC(C)(C)[C@@H]3c2nn[nH]n2)c2ccccc2)cc1 | 6.25 (≈ 11 µM)
CC1(C)S[C@@H]2[C@H](NC(=O)[C@H](O)c3ccccc3)C(=O)N2[C@H]1c1nnn[nH]1 [D-2-hydroxy-2-phenylacetyl, 6-(D-2-Hydroxy-2-phenylacetamido)-2,2-dimethyl-3-(5-tetrazolyl)penam] | < 0.1
CC1(C)S[C@@H]2[C@H](NC(=O)[C@H](NC(=O)CNC(=N)c3ccc[nH]3)c3ccccc3)C(=O)N2[C@H]1c1nnn[nH]1 | 50 (≈ 95.7 µM)

Same assay, conditions: Staphylococcus aureus; Table IV, values marked *; read-out: MIC against Staph. aureus

SMILES | MIC [µg/mL]
CC1(C)S[C@@H]2[C@H](N3C(=O)[C@@H](c4ccccc4)NC3(C)C)C(=O)N2[C@H]1c1nnn[nH]1 [6-(2,2-Dimethyl-5-oxo-4-phenyl-1-imidazolidinyl)-2,2-dimethyl-3-(5-tetrazolyl)penam] | 1.56 (≈ 3.77 µM)
CC1(C)S[C@@H]2[C@H](N3C(=O)[C@@H](c4ccc(O)cc4)NC3(C)C)C(=O)N2[C@H]1c1nnn[nH]1 [6-(2,2-Dimethyl-5-oxo-4-[p-hydroxyphenyl]-1-imidazolidinyl)-2,2-dimethyl-3-(5-tetrazolyl)penam] | 0.78 (≈ 1.82 µM)

Same assay, conditions: Table III; two-fold serial dilution, Brain-Heart Infusion broth, overnight

SMILES | MIC vs. Staph. aureus [µg/mL]
CN(C)C=NCC(=O)N[C@@H](C(=O)NC1C(=O)N2C1SC(C)(C)C2c1nnn[nH]1)c1ccccc1 (stereo partly drawn) [6-(D-2-[2-(dimethylaminoethyleneamino)acetamido]-2-phenylacetamido-2,2-dimethyl-3-(5-tetrazolyl)penam] | 6.25 (≈ 12.9 µM)

Each molecule was assayed on Streptococcus pyogenes (assay: In vitro minimum inhibitory concentration (MIC) vs. Strep. pyogenes). Conditions: Streptococcus pyogenes, read-out: MIC vs. Strep. pyogenes.
Assay type: cell-based
How it was run: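 Broth inoculated with bacteria and test antibiotic, incubated overnight and read visually; MIC is the lowest concentration preventing turbidity. Test preparations also contain some of the corresponding tetrazole tautomer.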

SMILES | MIC [µg/mL]
CC1(C)S[C@@H]2[C@H](NC(=O)[C@H](N)C3=CCC=CC3)C(=O)N2[C@H]1c1nnn[nH]1 [D-2-amino-2-(1,4-cyclohexadienyl)acetyl, 6-(D-2-Amino-2-[1,4-cyclohexadienyl]acetamido)-2,2-dimethyl-3-(5-tetrazolyl)penam] | < 0.1
CC1(C)S[C@@H]2[C@H](NC(=O)[C@H](NC(=O)CCNC(=O)c3ccc(Cl)cc3)c3ccccc3)C(=O)N2[C@H]1c1nnn[nH]1 | < 0.1
COc1ccc(NC(=O)N[C@@H](C(=O)N[C@@H]2C(=O)N3[C@@H]2SC(C)(C)[C@@H]3c2nnn[nH]2)c2ccccc2)cc1 | < 0.1
CC1(C)S[C@@H]2[C@H](NC(=O)[C@H](NC(=O)NC(=O)Cc3ccccc3)c3ccccc3)C(=O)N2[C@H]1c1nn[nH]n1 | < 0.1
CC1(C)S[C@@H]2[C@H](NC(=O)[C@H](NC(=O)CCl)c3ccccc3)C(=O)N2[C@H]1c1nn[nH]n1 [D-2-(2-chloroacetamido)-2-phenylacetyl, 6-(D-2-[2-Chloroacetamido]-2-phenylacetamido)-2,2-dimethyl-3-(5-tetrazolyl)penam] | < 0.1
CNC(=N)NCC(=O)N[C@@H](C(=O)N[C@@H]1C(=O)N2[C@@H]1SC(C)(C)[C@@H]2c1nn[nH]n1)c1ccccc1 | < 0.1
CC1(C)S[C@@H]2[C@H](NC(=O)C(N)c3ccc(S(N)(=O)=O)cc3)C(=O)N2[C@H]1c1nnn[nH]1 (mixture of isomers) [DL-2-amino-2-(p-sulfamoylphenyl)acetyl] | < 0.1
CC1(C)S[C@@H]2[C@H](NC(=O)CSc3ccncc3)C(=O)N2[C@H]1c1nnn[nH]1 [2-(4-pyridylthio)acetyl, 6-(2-[4-Pyridylthio]acetamido)-2,2-dimethyl-3-(5-tetrazolyl)penam] | < 0.1
CC1(C)S[C@@H]2[C@H](NC(=O)[C@H](NC(=O)CNC(=O)c3ccccc3)c3ccccc3)C(=O)N2[C@H]1c1nn[nH]n1 [6-(2-D-[2-Benzamidoacetamido]-2-phenylacetamido)-2,2-dimethyl-3-(5-tetrazolyl)penam] | < 0.1
CC1(C)S[C@@H]2[C@H](NC(=O)CNC(=N)c3ccncc3)C(=O)N2[C@H]1c1nnn[nH]1 [2-(4-pyridinecarboxamidino)acetyl] | < 0.1
CC1(C)S[C@@H]2[C@H](NC(=O)[C@H](NC(=O)CCl)c3ccco3)C(=O)N2[C@H]1c1nn[nH]n1 [6-(D-2-[2-Chloroacetamido]-2-[2-furyl]acetamido)-2,2-dimethyl-3-(5-tetrazolyl)penam] | < 0.1
CC1(C)S[C@@H]2[C@H](NC(=O)Cc3ccc(OCCN)cc3)C(=O)N2[C@H]1c1nn[nH]n1 [2-(4-[2-aminoethoxy]phenyl)acetyl, 6-(2-[4-(2-Aminoethoxy)phenyl]acetamido)-2,2-dimethyl-3-(5-tetrazolyl)penam] | < 0.1
CCOC(=O)C(=O)N[C@@H](C(=O)N[C@@H]1C(=O)N2[C@@H]1SC(C)(C)[C@@H]2c1nnn[nH]1)c1ccccc1 | < 0.1
CCNC(=N)NC(=O)NCC(=O)N[C@@H](C(=O)N[C@@H]1C(=O)N2[C@@H]1SC(C)(C)[C@@H]2c1nn[nH]n1)c1ccccc1 | < 0.1

Same assay, conditions: Streptococcus pyogenes; Table II; two-fold serial dilution, Brain-Heart Infusion broth, overnight; read-out: MIC vs. Strep. pyogenes

SMILES | MIC [µg/mL]
CC1(C)S[C@@H]2[C@H](NC(=O)[C@H](NC(=O)CNC(=N)c3cc(Br)cc(S(N)(=O)=O)c3)c3ccccc3)C(=O)N2[C@H]1c1nnn[nH]1 | 0.004 (≈ 0.00578 µM)
CC1(C)S[C@@H]2[C@H](NC(=O)[C@H](NC(=O)NC(=O)OCc3ccccc3)c3ccccc3)C(=O)N2[C@H]1c1nn[nH]n1 | 0.004 (≈ 0.00726 µM)
CC1(C)S[C@@H]2[C@H](NC(=O)[C@H](NC(=O)CNC(=O)NC(=N)NCc3ccc(Cl)cc3)c3ccccc3)C(=O)N2[C@H]1c1nn[nH]n1 | 0.39 (≈ 0.609 µM)

Same assay, conditions: Streptococcus pyogenes; Table IV; read-out: MIC vs. Strep. pyogenes

SMILES | MIC [µg/mL]
CC1(C)S[C@@H]2[C@H](N3CN[C@H](c4ccc(O)cc4)C3=O)C(=O)N2[C@H]1c1nnn[nH]1 [6-(5-Oxo-4-[p-hydroxyphenyl]-1-imidazolidinyl)-2,2-dimethyl-3-(5-tetrazolyl)penam] | 6.25 (≈ 15.6 µM)
